Experimental data published in PubChem BioAssay AID493040 (Abbott Labs, 2011).
Activity calls are given as the source filed them. The rule behind the calls is not given here.

Columns and labels:
Test in all cases: PubChem AID 493040
[1] = molecular target: Mitogen-activated protein kinase 14 (Homo sapiens) (UniProt Q16539); conditions: kinase panel binding, pKi; MAPK14
[2] = molecular target: Cyclin-dependent kinase 2 (Homo sapiens) (UniProt P24941); conditions: kinase panel binding, pKi; CDK2
[3] = molecular target: Rho-associated protein kinase 2 (Homo sapiens) (UniProt O75116); conditions: kinase panel binding, pKi; ROCK2
[4] = molecular target: Serine/threonine-protein kinase Sgk2 (Homo sapiens) (UniProt Q9HBY8); conditions: kinase panel binding, pKi; SGK
Chain of Serine/threonine-protein kinase Sgk2 (Homo sapiens) (Q9HBY8 whole entry, looked up): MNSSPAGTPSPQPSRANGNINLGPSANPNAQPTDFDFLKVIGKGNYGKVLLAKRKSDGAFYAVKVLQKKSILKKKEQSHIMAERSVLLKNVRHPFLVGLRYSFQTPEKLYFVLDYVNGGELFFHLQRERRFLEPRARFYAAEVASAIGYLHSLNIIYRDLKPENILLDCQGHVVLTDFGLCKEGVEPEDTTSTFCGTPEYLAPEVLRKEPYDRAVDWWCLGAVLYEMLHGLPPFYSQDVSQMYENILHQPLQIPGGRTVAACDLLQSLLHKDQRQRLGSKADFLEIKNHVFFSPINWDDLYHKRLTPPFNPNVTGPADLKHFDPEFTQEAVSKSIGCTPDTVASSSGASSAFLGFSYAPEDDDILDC

Chain of Rho-associated protein kinase 2 (Homo sapiens) (O75116 whole entry, looked up): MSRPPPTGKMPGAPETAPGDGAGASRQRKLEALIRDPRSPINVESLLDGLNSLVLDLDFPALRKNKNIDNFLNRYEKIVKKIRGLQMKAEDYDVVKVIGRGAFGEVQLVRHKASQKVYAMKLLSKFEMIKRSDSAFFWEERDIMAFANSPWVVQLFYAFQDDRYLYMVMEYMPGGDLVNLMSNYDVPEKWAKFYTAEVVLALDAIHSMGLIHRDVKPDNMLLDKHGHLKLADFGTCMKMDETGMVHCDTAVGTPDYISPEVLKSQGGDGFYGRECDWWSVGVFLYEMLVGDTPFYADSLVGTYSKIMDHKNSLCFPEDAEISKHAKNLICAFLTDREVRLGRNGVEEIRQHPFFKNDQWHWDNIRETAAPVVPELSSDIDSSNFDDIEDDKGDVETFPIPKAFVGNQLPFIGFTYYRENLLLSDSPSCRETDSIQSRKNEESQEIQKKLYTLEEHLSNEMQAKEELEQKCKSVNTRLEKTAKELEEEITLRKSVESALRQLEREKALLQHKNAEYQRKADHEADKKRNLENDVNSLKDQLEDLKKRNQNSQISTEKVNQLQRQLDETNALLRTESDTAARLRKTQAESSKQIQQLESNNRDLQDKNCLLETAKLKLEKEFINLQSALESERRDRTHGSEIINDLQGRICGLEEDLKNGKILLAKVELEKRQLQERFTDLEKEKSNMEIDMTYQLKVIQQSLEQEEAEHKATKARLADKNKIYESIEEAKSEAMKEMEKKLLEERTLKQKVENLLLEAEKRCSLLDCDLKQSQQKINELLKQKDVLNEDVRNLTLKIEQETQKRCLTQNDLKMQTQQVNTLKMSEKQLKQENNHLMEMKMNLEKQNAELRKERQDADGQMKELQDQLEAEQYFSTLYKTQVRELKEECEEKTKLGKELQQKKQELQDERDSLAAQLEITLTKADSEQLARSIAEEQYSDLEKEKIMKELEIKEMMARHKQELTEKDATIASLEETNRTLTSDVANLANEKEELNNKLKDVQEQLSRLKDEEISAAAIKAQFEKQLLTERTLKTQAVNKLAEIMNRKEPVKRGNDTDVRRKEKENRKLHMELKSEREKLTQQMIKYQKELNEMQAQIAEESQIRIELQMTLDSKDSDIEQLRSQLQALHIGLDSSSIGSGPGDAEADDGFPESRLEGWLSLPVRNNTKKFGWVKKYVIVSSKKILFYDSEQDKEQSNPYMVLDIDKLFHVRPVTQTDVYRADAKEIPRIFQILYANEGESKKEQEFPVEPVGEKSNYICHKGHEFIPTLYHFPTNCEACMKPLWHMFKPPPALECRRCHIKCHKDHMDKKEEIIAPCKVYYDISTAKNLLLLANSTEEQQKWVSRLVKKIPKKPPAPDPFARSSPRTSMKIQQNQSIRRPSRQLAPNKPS
Chain of Mitogen-activated protein kinase 14 (Homo sapiens) (Q16539 whole entry, looked up): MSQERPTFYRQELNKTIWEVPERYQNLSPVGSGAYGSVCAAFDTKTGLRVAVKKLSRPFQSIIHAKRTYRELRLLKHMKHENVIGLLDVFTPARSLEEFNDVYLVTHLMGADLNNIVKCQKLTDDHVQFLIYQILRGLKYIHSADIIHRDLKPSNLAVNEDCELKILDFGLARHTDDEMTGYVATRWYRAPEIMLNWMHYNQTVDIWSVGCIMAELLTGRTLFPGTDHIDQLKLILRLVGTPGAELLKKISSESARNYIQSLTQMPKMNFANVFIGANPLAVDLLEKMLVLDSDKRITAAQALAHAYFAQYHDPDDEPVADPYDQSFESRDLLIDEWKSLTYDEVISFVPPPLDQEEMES

Structure (SMILES) | Ki [1] [nM] | Ki [2] [nM] | Ki [3] | Ki [4]
CCOC(=O)c1cn(-c2ccc(O)cc2C)c2cc(-c3ccncc3)ccc2c1=O |  | 3980 | 31.6 nM | > 10000 nM (inactive)
CC(C)(C)c1cc(NC(=O)c2cc3ccccc3s2)n(-c2cccc(OCC(=O)O)c2)n1 | 794 |  |  | 
Oc1ccc(-c2nc(-c3ccc(F)cc3)c(-c3ccncc3)[nH]2)cc1 |  |  | > 3980 nM (inactive) | > 6310 nM (inactive)
CC(C)(C)c1cc(NC(=O)Nc2cccc3ccccc23)n(-c2cccc(C(=O)N(CCN)CCO)c2)n1 | 631 |  |  | 
O=C1N=c2ccc(Br)cc2=C1c1sc(=S)[nH]c1O |  |  |  | 2000 nM
Nc1ccc2cc(NCCc3ccccc3)cc(Nc3ncccn3)c2n1 | 2510 |  |  | 
COc1ccc(C=C2SC(=Nc3ccccc3)NC2=O)cc1OC |  |  |  | > 10000 nM (inactive)
CC(C)(CO)CCCNc1cc(-c2c[nH]c3ncccc23)cc(Cl)n1 |  | 100 | 10 nM | 
Cc1cccc(CNc2cc(-c3c[nH]c4ncccc34)ncn2)c1 |  | 39.8 | 12.6 nM | 
c1ccc(Cn2cc(-c3ccc4[nH]nc(-c5ccccc5)c4c3)nn2)cc1 |  | 100 | 63.1 nM | 
O=c1ncn2nc(Sc3ccc(F)cc3F)ccc2c1-c1c(Cl)cccc1Cl |  |  |  | > 7940 nM (inactive)
Cc1c(C#N)c2nc3ccccc3n2c(=O)c1=CO |  |  | > 7940 nM (inactive) | > 10000 nM (inactive)
CCCCNc1c(-c2ccc3[nH]ncc3c2)nc2ncccn12 |  | 398 | 63.1 nM | 
CNCCOc1cncc(-c2ccc3n[nH]c(C)c3c2)c1 |  | 501 | 20 nM | 
CCCCCCCCCCCCOc1ccc(N=C(N)N)cc1N=C(N)N |  | 5010 | 3160 nM | > 10000 nM (inactive)
c1ccc(Cn2cc(-c3ccc4[nH]nc(-c5cn(Cc6ccccc6)nn5)c4c3)nn2)cc1 |  | 5.01 | 126 nM | 
COCCN(CCOC)c1cc(-c2c[nH]c3ncccc23)cc(Cl)n1 |  | 2000 | 39.8 nM | 
CCCCNc1cc(-c2ccncc2)cc2[nH]nc(N)c12 |  | 200 | 63.1 nM | 
O=S(=O)(Nc1ccccn1)c1ccc(N=Cc2c(O)[nH]c3ccc4ncsc4c23)cc1 |  |  |  | 15.8 nM
CN(C)CCCOc1cc(-c2ccncc2)cc2[nH]nc(N)c12 |  | 3160 | 251 nM | 
CCn1c(=C(C#N)C(=O)O)sc(=CNc2ccccc2)c1=O |  |  |  | 3980 nM
Cc1cccc(CNc2cc(-c3c[nH]c4ncccc34)cc(Cl)n2)c1C |  | 200 | 31.6 nM | 
CCn1c(-c2nonc2N)nc2cnc(Oc3cccc(NC(=O)c4ccc(OCCN5CCOCC5)cc4)c3)cc21 |  | 794 |  | 200 nM

Continued, values first:

Ki [1] [nM] | Ki [2] [nM] | Ki [3] | Ki [4] | Structure (SMILES)
7940 |  |  |  | CC(=O)n1ncc2cc(N)ccc21
 | 126 | 15.8 nM |  | OCCCCNc1cc(-c2c[nH]c3ncccc23)cc(Cl)n1
 | 200 | 25.1 nM |  | Nc1n[nH]c2ccc(-c3cc(Cc4ccccc4)no3)cc12
 |  |  | > 7940 nM (inactive) | Oc1cccc(-c2nc(N3CCOCC3)c3oc4ncccc4c3n2)c1
 |  |  | > 10000 nM (inactive) | NC(=O)c1cccc2[nH]c(-c3cccc(NCCN4CCCC4)n3)nc12
 | 251 | 5.01 nM |  | COCCNc1cc(-c2c[nH]c3ncccc23)cc(Cl)n1
 | 794 | 794 nM |  | O=c1cc(-c2ccncc2)nc(NCc2cc(F)cc(F)c2)[nH]1
 |  |  | > 10000 nM (inactive) | O=C(Nc1ccc(CO)cc1)c1cnn2c(-c3ccccc3)ccnc12
 | 1260 | 1580 nM |  | NC(=O)c1ccc(-c2ccnc(N)n2)cc1N1CCCCC1
 | 79.4 | 20 nM |  | Nc1n[nH]c2ccc(-c3nnn(Cc4ccccc4)c3C3CC3)cc12
 | 158 | > 7940 nM (inactive) |  | O=C(NCc1ccccc1)c1c[nH]n2c(=O)cc(-c3ccncc3)nc12
 |  |  | > 10000 nM (inactive) | COc1cc2c(Oc3ccc4[nH]c(C)cc4c3F)ncnc2cc1OCCCN1CCCC1
 | 1000 | 126 nM |  | CCCCOc1cc(-c2ccncc2)cc2[nH]nc(N)c12
 | 631 | > 7940 nM (inactive) |  | O=[N+]([O-])c1cccc(-c2nnc3ccc(N4CCCCC4)nn23)c1
